Data from patent publication US9688664B2, “Modulators of fatty acid amide hydrolase” (JANSSEN PHARMACEUTICA NV, priority 2010, dated 2017).
“Also recorded” adds a separate entry of the source. Where two headings read alike, the source gives them in different places.

How the values were obtained:
rat = assay: Primary Observation (Irwin) Test in the rat; assay type: in vivo; conditions: for Hypothermia: at 15 to 60 min and at 180 min; for Decreased muscle tone (rats affected/tested): at 60 to 120 min
Experimental: Primary Observation (Irwin) Test in the Rat
The method, which detects the first toxic dose, the active dose-range and the main effects of a test substance on behavior and physiological function, follows that described by Irwin et al., Psychopharmacologia, 1968, 13, 222-257. […] All animals within a treatment group were observed simultaneously. Behavioral modifications, physiological and neurotoxicity symptoms, rectal temperature and pupil diameter were recorded according to a standardized observation grid derived from that of Irwin. The grid contains the following items: death, convulsions, tremor, Straub tail, altered activity, jumping, abnormal gait (rolling, tip-toe), motor uncoordination, altered abdominal muscle tone, loss of grasping, akinesia, catalepsy, loss of traction, loss of balance, fore-paw treading, writhes, piloerection, stereotypies (sniffing, chewing, head movements), head twitches, scratching, altered respiration, aggression, altered fear/startle, altered reactivity to touch, ptosis, exophthalmia, loss of righting reflex, loss of corneal reflex, analgesia, defecation/diarrhea, salivation, lacrimation, rectal temperature (hypothermia/hyperthermia) and pupil diameter (myosis/mydriasis). The test substances were evaluated at 2 doses (10 and 60 mg/kg), administered p.o. immediately before the test, and compared with a vehicle control group. Observations were performed 15, 30, 60, 120 and 180 minutes after administration of the test substances/vehicles and also 24 hours later.

[1] = in vivo; cited from earlier work
[2] = in vivo; cited from earlier work; remark: listed apart in the source
CREAE mice = conditions: cited from earlier work
CYP2D6 = CYP2D6 (Homo sapiens (Human), UniProt P10635); assay: Drug-Drug Interaction (DDI) assay, CYP inhibition in human liver microsomes
Experimental: Drug-Drug Interaction (DDI) Assay
The assay was set up and executed using a Biomek FXp robotic liquid handling workstation (Beckman Coulter Corp., Fullerton, Calif.), integrated with a Cytomat shaking incubator set at 37° C. […] A batch of human liver microsomes from 50 donors, pooled and characterized by BD Gentest, (Cat #457111, lot 01220, 20 mg/mL in 250 mM sucrose) was used. Each substrate was incubated at a protein concentration of 0.1, 0.15 or 0.2 mg/mL in a total incubation volume of 0.16 mL. The incubates were prepared in 100 mM potassium phosphate buffer (pH 7.4) supplemented with 5 mM magnesium chloride and 1 mM EDTA. Quinidine was used as a positive control inhibitor for CYP2D6. Quinidine was prepared as a working solution in organic solvent (primarily methanol, with DMSO and acetonitrile as secondary solvents) and was spiked into the microsomal suspension to yield the desired concentration level. The solution was then serially diluted with additional microsomal suspension to yield eight concentration levels. Final organic content was less than 0.07%. […] The final organic content was 0.2%. Incubations were performed in triplicate for each probe substrate.
The control inhibitor (quinidine) and marker substrate (dextromethorphan or bufuralol) were transferred to the incubation vessels (60 μL aliquots each). After a pre-incubation period at 37° C., the reactions were initiated by the addition of a 40 μL aliquot of NADPH regenerating system (BD Gentest). […] Incubation times were 12 minutes for both dextromethorphan and bufuralol. Reactions were terminated by the direct addition of acetonitrile (160 μL) to the incubation mix followed by transfer to a pooling plate containing additional acetonitrile (400 μL).
The incubation reactions were pooled by equal test compound or control inhibitor concentration, transferred to a Phenomenex Strata™ Impact protein precipitation filter plate containing acetonitrile and internal standards (100 μL of a mixture of the following deuterated compounds ranging in concentration from 0.5 to 2.8 μM: hydroxybufuralol-d9, dextrorphan-d3). The resulting filtrate was evaporated to dryness under a nitrogen flow, then reconstituted in 250 μL mobile phase (1:1 methanol:water, containing 0.1% acetic acid). Samples and standards were analyzed on a Sciex API4000 triple quadrupole mass spectrometer. The data were acquired in Analyst 1.4.1 (Applied Biosystems/MDS Sciex). For IC50 assays, the area ratios of the metabolite and internal standard chromatographic peaks were transferred to SigmaPlot (version 8.0) and plotted on a semi-log scale (percent residual activity vs. inhibitor concentration) to determine the IC50 value.

rat FAAH = rat FAAH (Rattus norvegicus (Rat), UniProt P97612); assay: Assay Method 2: rat FAAH assay (3H-anandamide hydrolysis in cell homogenate); assay type: biochemical; conditions: average of results
Experimental: A. Transfection of Cells with Rat FAAH
(§1) A 10-cm tissue culture dish with a confluent monolayer of SK-N-MC cells was split 2 days (d) prior to transfection. Using sterile technique, the media was removed and the cells were detached from the dish by the addition of trypsin. One fifth of the cells were then placed onto a new 10-cm dish. Cells were grown in a 37° C. incubator with 5% CO2 in Minimal Essential Media Eagle with 10% Fetal Bovine Serum. After 2 d, cells were approximately 80% confluent. These cells were removed from the dish with trypsin and pelleted in a clinical centrifuge. The pellet was re-suspended in 400 μL complete media and transferred to an electroporation cuvette with a 0.4 cm gap between the electrodes. Supercoiled rat FAAH cDNA (1 μg) was added to the cells and mixed. The voltage for the electroporation was set at 0.25 kV, and the capacitance was set at 960 μF. After electroporation, the cells were diluted into complete media (10 mL) and plated onto four 10-cm dishes. Because of the variability in the efficiency of electroporation, four different concentrations of cells were plated. The ratios used were 1:20, 1:10, and 1:5, with the remainder of the cells being added to the fourth dish. The cells were allowed to recover for 24 h before adding the selection media (complete media with 600 μg/mL G418). After 10 d, dishes were analyzed for surviving colonies of cells. […]

FAAH [3] = molecular target: T1, FAAH (Homo sapiens (Human), UniProt O00519); assay: Assay Method 1: human FAAH assay (3H-anandamide hydrolysis in cell homogenate); assay type: biochemical; conditions: average of results
Experimental: A. Transfection of Cells with Human FAAH
as §1, with “Supercoiled human” for “Supercoiled rat”

rats [4] = conditions: cited from earlier work
rats [5] = conditions: cited from earlier work; remark: listed apart in the source
FAAH [6] = molecular target: T1, FAAH; conditions: cited from earlier work
rats [7] = conditions: rat; cited from earlier work
rats [8] = conditions: cited from earlier work; remark: listed apart in the source
[9] = read-out: 2D6 Bufuralol IC50, substrate bufuralol
[10] = read-out: 2D6 Dextromethorphan IC50, substrate dextromethorphan

Sequence of CYP2D6 (P10635 whole entry): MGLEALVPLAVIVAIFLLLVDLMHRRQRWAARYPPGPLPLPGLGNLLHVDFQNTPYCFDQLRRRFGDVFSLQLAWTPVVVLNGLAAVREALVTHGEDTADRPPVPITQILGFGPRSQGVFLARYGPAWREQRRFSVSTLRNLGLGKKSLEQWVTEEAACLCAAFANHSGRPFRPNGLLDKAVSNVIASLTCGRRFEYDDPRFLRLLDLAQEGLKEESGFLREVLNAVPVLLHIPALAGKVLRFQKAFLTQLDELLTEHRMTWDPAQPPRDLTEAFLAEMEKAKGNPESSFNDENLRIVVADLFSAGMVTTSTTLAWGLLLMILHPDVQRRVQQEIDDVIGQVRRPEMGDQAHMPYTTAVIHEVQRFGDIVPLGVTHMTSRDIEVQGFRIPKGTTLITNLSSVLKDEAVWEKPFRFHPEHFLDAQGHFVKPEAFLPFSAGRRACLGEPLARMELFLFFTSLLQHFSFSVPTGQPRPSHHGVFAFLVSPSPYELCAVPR
T1 sequence (O00519 whole entry): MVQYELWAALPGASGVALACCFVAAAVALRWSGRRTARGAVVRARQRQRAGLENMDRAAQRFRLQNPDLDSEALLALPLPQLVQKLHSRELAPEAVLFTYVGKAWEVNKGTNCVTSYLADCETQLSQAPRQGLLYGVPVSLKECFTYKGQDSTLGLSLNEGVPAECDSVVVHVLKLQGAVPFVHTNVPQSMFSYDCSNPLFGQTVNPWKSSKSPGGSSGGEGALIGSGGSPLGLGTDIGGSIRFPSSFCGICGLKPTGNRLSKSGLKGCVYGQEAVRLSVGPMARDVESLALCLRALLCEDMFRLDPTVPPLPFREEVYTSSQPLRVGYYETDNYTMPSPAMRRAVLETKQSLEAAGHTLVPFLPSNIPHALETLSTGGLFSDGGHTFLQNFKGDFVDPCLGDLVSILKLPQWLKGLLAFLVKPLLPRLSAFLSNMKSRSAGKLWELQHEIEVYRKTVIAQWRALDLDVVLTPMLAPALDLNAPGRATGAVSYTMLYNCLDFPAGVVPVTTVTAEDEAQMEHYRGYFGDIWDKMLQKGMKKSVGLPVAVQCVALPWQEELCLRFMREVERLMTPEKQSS
Sequence of rat FAAH (P97612 whole entry): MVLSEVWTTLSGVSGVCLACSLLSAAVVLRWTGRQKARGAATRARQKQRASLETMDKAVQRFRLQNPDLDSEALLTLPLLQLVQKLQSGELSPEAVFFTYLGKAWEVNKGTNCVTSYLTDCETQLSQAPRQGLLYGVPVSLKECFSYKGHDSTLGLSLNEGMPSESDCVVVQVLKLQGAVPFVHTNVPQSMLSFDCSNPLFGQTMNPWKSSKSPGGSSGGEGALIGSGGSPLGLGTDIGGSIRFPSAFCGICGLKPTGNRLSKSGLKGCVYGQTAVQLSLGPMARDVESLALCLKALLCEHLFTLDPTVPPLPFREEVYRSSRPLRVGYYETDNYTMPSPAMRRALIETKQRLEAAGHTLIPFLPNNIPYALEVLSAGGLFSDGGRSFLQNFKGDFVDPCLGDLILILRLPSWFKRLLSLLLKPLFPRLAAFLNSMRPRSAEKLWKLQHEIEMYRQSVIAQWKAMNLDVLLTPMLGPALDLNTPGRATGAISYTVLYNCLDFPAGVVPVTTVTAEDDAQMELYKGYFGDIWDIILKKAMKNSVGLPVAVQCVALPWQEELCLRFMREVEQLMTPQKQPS

## Cl.O=C(Nc1cnccc1Cl)N1CCN(Cc2ccc3c(c2)OC(F)(F)O3)CC1
rat; 10 mg/kg p.o., at 180 min, hydrochloride
  Increased reactivity to touch (rats affected/tested): 1 out of 4
rat; 60 mg/kg p.o.
  Sedative/depressant effects (sedation, motor signs and hypothermia): not observed
rat; 60 mg/kg p.o., at 60 min
  Increased abdominal muscle tone (rats affected/tested): 1 out of 4
  Increased reactivity to touch (rats affected/tested): 1 out of the 4
rat; 60 mg/kg p.o., at 180 min
  Increased reactivity to touch (rats affected/tested): 1 out of the 4
rat; dose-range 10-60 mg/kg p.o.
  General effects in the Irwin Test: weak and transient arousing effects in only one rat
rat; up to 24 hours after administration, 10-60 mg/kg p.o.
  Other signs: no other signs were observed

## O=C(Nc1ccccc1)N1CCN(c2nc(-c3ccccc3)ns2)CC1 [4-(3-Phenyl-[1,2,4]thiadiazol-5-yl)-piperazine-1-carboxylic acid phenylamide]
[1]
  efficacy in neuropathic pain model: efficacious
[2]
  efficacy in acute burn injury pain model: efficacious

## CCCCCCCCCCCCCCCCS(=O)(=O)F [AM374]
CREAE mice
  spasticity: significantly reduce spasticity

## Cl.O=C(Nc1cccnc1)N1CCN(Cc2ccc3c(c2)OC(F)(F)O3)CC1 [Comparator Compound HCl]
rat; 10 mg/kg p.o., at 15 min
  Increased reactivity to touch (rats affected/tested): all 3 rats; also recorded: (3/3) at 15
rat; 60 mg/kg p.o.
  Sedative/depressant effects (sedation, motor signs and hypothermia): presence of sedative/depressant effects
  Hypothermia: induced hypothermia; also recorded: slight induction at 15
  Decreased muscle tone (rats affected/tested): all 3 rats; also recorded: (3/3) at 60 to 120
rat; 60 mg/kg p.o., 15 to 120 min
  Sedation (rats affected/tested): all 3 rats; also recorded: (3/3) 15 to 120 min
rat; 60 mg/kg p.o., at 15 min
  Abnormal gait (rolling) (rats affected/tested): all 3 rats; also recorded: (3/3) at 15 min

## O=C(Nc1cccnc1)N1CCN(Cc2ccc3c(c2)OC(F)(F)O3)CC1 [Comparator Compound]
rat; 10 mg/kg p.o., at 15 min
  Increased reactivity to touch (rats affected/tested): all rats tested
rat; 60 mg/kg p.o., 15 to 120 min
  Sedation (rats affected/tested): all rats tested
rat; 60 mg/kg p.o.
  Hypothermia: induced hypothermia
  Decreased muscle tone (rats affected/tested): all rats
rat; 60 mg/kg p.o., at 15 min
  Abnormal gait (rolling) (rats affected/tested): all rats tested
CYP2D6; [9]
  IC50: 3200 nM
CYP2D6; [10]
  IC50: 2000 nM

## O=C(Nc1cnccc1Cl)N1CCN(Cc2ccc3c(c2)OC(F)(F)O3)CC1 [Example 1]
rat; 10 mg/kg p.o., at 180 min
  Increased reactivity to touch (rats affected/tested): (1/4) at
rat; 60 mg/kg p.o.
  Abnormal gait (rats affected/tested): (0/4)
  Hypothermia (rats affected/tested): (0/4)
  Sedation (rats affected/tested): (0/4)
rat; 60 mg/kg p.o., at 60 min
  Increased abdominal muscle tone (rats affected/tested): (1/4) at 60 min
  Increased reactivity to touch (rats affected/tested): (1/4) at 60 min
rat; 60 mg/kg p.o., at 180 min
  Increased reactivity to touch (rats affected/tested): (1/4) at 180 min
Rat FAAH
  IC50: 320 nM
FAAH [3]
  IC50: 75 nM
CYP2D6; [9]
  IC50: 24000 nM
CYP2D6; [10]
  IC50: 11000 nM

## O=C(CCCCCCc1ccccc1)c1ncc(-c2ccccn2)o1 [OL-135]
Rats [4]
  analgesic efficacy/activity, hot plate: analgesic activity
Rats [5]
  analgesic activity, tail immersion: analgesic activity
FAAH [6]
  FAAH inhibition: potent inhibitor

## NC(=O)c1cccc(-c2cccc(OC(=O)NC3CCCCC3)c2)c1 [URB-597]
Rats [4]
  analgesic efficacy/activity, hot plate: analgesic efficacy
Rats [7]
  analgesic efficacy, formalin test: analgesic efficacy
Rats [8]
  efficacy in model of anxiety: efficacy
